{"source": "patent US8192962B2", "about": "“Processes for detecting toxic substances” (Daikin Industries, Ltd., priority 2001, dated 2012)", "tested_on": "Energy system protein genes", "assay": "DNA chip mRNA expression in yeast, energy system protein genes (Table 4)", "type": "cell-based, Saccharomyces cerevisiae S288C", "method": "Yeast (Saccharomyces cerevisiae S288C (α SUC2mal mel gap2 CUP1)) were incubated at 25° C. on YPD medium (yeast extract 1%, polypepton 2%, glucose 2%). One of toxic chemical substances was added to the cells at logarithmic growth phase, and the cells were further incubated for two hours. Cells were cultured without any chemical substance in the same condition, and were used as control. Concentrations of the chemical substances were defined to inhibit the growth of the yeast but not lead to death.\nAfter completion of the incubation, the culture was centrifuged to collect the cells. To the cells, sodium acetate buffer (50 mM sodium acetate, 10 mM EDTA, 1% SDS) was added, and the mixture was shaken at 65° C. for five minutes, followed by returning to room temperature, and obtaining the supernatant, of which the procedures were repeated two times. To the supernatant, ½ amount of a solution of phenol/chloroform was added, and the mixture was centrifuged to give a supernatant, which was added with an equal amount of chloroform, and the mixture was centrifuged to give a supernatant. To the supernatant, an equal amount of isopropanol containing 0.3 M sodium acetate was added, and the mixture was allowed to stand at room temperature for 30 minutes, after which the mixture was centrifuged to give a sediment of the whole RNAs. Seventy % ethanol was added to the sediment, and the mixture was again centrifuged to give a sediment, which was then dried and dissolved in water. mRNA was isolated from the whole RNAs as followings. In view of the fact that a poly A chain is attached to the 3′ terminus of mRNA, a polynucleotide having a poly T structure which was immobilized on the surface of latex beads was used to trap the mRNA, and then the mRNA was washed and eluted with spine column (Oligotex-dT30<Super>mRNA Purification Kit, Takara). Reverse transcription of the mRNA was conducted with a reverse transcriptase (Super Script II Reverse Transcriptase; catalogue No. 18064-014, GibcoBRL) using fluorescence-labeled nucleotides to give cDNAs that were introduced with Cy3-dUTP or Cy5-dUTP during the reverse transcription.\nThe labeled cDNAs were dissolved in TE buffer (10mM Tris-HCl/1 mM EDTA, pH8.0), and the solution was dropped on the DNA chip containing the whole genes of yeast (DNA Chip Research Inc. Japan) so that the cDNAs were hybridized on the DNA chip at 65° C. for over 12 hours. The fluoresces intensity of the DNA chip was read with a scanner, and the ratio relative to the fluorescence intensity resulting from the absence of chemical substance was estimated as the following, which is shown in Tables 1 to 9: […]"}
{"smiles": "[Cl][Cd][Cl]", "note": "[(2), CdCl2]", "values": [{"measurement": "The level of expressed mRNA in the presence of chemical substance/The level of expressed mRNA in the absence of chemical substance", "setting": "yeast gene YAL060W", "result": 1.8}, {"measurement": "The level of expressed mRNA in the presence of chemical substance/The level of expressed mRNA in the absence of chemical substance", "setting": "yeast gene YBL058W, cells incubated two hours with the chemical substance", "result": 1.5}, {"measurement": "The level of expressed mRNA in the presence of chemical substance/The level of expressed mRNA in the absence of chemical substance", "setting": "yeast gene YBL099W, cells incubated two hours with the chemical substance", "result": 0.9}, {"measurement": "The level of expressed mRNA in the presence of chemical substance/The level of expressed mRNA in the absence of chemical substance", "setting": "yeast gene YBR001C, cells incubated two hours with the chemical substance", "result": 1.4}, {"measurement": "The level of expressed mRNA in the presence of chemical substance/The level of expressed mRNA in the absence of chemical substance", "setting": "yeast gene YBR185C, cells incubated two hours with the chemical substance", "result": 1.0}, {"measurement": "The level of expressed mRNA in the presence of chemical substance/The level of expressed mRNA in the absence of chemical substance", "setting": "yeast gene YBR221C, cells incubated two hours with the chemical substance", "result": 0.7}, {"measurement": "The level of expressed mRNA in the presence of chemical substance/The level of expressed mRNA in the absence of chemical substance", "setting": "yeast gene YCL040W", "result": 5.6}, {"measurement": "The level of expressed mRNA in the presence of chemical substance/The level of expressed mRNA in the absence of chemical substance", "setting": "yeast gene YCR012W", "result": 1.5}, {"measurement": "The level of expressed mRNA in the presence of chemical substance/The level of expressed mRNA in the absence of chemical substance", "setting": "yeast gene YCR046C, cells incubated two hours with the chemical substance", "result": 1.2}, {"measurement": "The level of expressed mRNA in the presence of chemical substance/The level of expressed mRNA in the absence of chemical substance", "setting": "yeast gene YCR105W, cells incubated two hours with the chemical substance", "result": 1.2}, {"measurement": "The level of expressed mRNA in the presence of chemical substance/The level of expressed mRNA in the absence of chemical substance", "setting": "yeast gene YDL021W", "result": 1.7}, {"measurement": "The level of expressed mRNA in the presence of chemical substance/The level of expressed mRNA in the absence of chemical substance", "setting": "yeast gene YDL067C, cells incubated two hours with the chemical substance", "result": 1.0}, {"measurement": "The level of expressed mRNA in the presence of chemical substance/The level of expressed mRNA in the absence of chemical substance", "setting": "yeast gene YDL078C, cells incubated two hours with the chemical substance", "result": 1.1}, {"measurement": "The level of expressed mRNA in the presence of chemical substance/The level of expressed mRNA in the absence of chemical substance", "setting": "yeast gene YDL107W, cells incubated two hours with the chemical substance", "result": 1.3}, {"measurement": "The level of expressed mRNA in the presence of chemical substance/The level of expressed mRNA in the absence of chemical substance", "setting": "yeast gene YDL174C", "result": 1.8}, {"measurement": "The level of expressed mRNA in the presence of chemical substance/The level of expressed mRNA in the absence of chemical substance", "setting": "yeast gene YDL181W, cells incubated two hours with the chemical substance", "result": 1.8}, {"measurement": "The level of expressed mRNA in the presence of chemical substance/The level of expressed mRNA in the absence of chemical substance", "setting": "yeast gene YDR001C", "result": 2.2}, {"measurement": "The level of expressed mRNA in the presence of chemical substance/The level of expressed mRNA in the absence of chemical substance", "setting": "yeast gene YDR050C, cells incubated two hours with the chemical substance", "result": 1.3}, {"measurement": "The level of expressed mRNA in the presence of chemical substance/The level of expressed mRNA in the absence of chemical substance", "setting": "yeast gene YDR079W, cells incubated two hours with the chemical substance", "result": 1.1}, {"measurement": "The level of expressed mRNA in the presence of chemical substance/The level of expressed mRNA in the absence of chemical substance", "setting": "yeast gene YDR178W, cells incubated two hours with the chemical substance", "result": 2.0}, {"measurement": "The level of expressed mRNA in the presence of chemical substance/The level of expressed mRNA in the absence of chemical substance", "setting": "yeast gene YDR231C", "result": 1.6}, {"measurement": "The level of expressed mRNA in the presence of chemical substance/The level of expressed mRNA in the absence of chemical substance", "setting": "yeast gene YDR298C, cells incubated two hours with the chemical substance", "result": 1.2}, {"measurement": "The level of expressed mRNA in the presence of chemical substance/The level of expressed mRNA in the absence of chemical substance", "setting": "yeast gene YDR377W, cells incubated two hours with the chemical substance", "result": 1.1}, {"measurement": "The level of expressed mRNA in the presence of chemical substance/The level of expressed mRNA in the absence of chemical substance", "setting": "yeast gene YDR529C, cells incubated two hours with the chemical substance", "result": 1.0}, {"measurement": "The level of expressed mRNA in the presence of chemical substance/The level of expressed mRNA in the absence of chemical substance", "setting": "yeast gene YEL024W, cells incubated two hours with the chemical substance", "result": 0.9}, {"measurement": "The level of expressed mRNA in the presence of chemical substance/The level of expressed mRNA in the absence of chemical substance", "setting": "yeast gene YEL039C, cells incubated two hours with the chemical substance", "result": 0.7}, {"measurement": "The level of expressed mRNA in the presence of chemical substance/The level of expressed mRNA in the absence of chemical substance", "setting": "yeast gene YER178W", "result": 0.9}, {"measurement": "The level of expressed mRNA in the presence of chemical substance/The level of expressed mRNA in the absence of chemical substance", "setting": "yeast gene YFL057C", "result": 5.9}, {"measurement": "The level of expressed mRNA in the presence of chemical substance/The level of expressed mRNA in the absence of chemical substance", "setting": "yeast gene YFR053C", "result": 1.4}, {"measurement": "The level of expressed mRNA in the presence of chemical substance/The level of expressed mRNA in the absence of chemical substance", "setting": "yeast gene YGL018C, cells incubated two hours with the chemical substance", "result": 1.0}, {"measurement": "The level of expressed mRNA in the presence of chemical substance/The level of expressed mRNA in the absence of chemical substance", "setting": "yeast gene YGL062W", "result": 1.3}, {"measurement": "The level of expressed mRNA in the presence of chemical substance/The level of expressed mRNA in the absence of chemical substance", "setting": "yeast gene YGL187C, cells incubated two hours with the chemical substance", "result": 0.8}, {"measurement": "The level of expressed mRNA in the presence of chemical substance/The level of expressed mRNA in the absence of chemical substance", "setting": "yeast gene YGL191W, cells incubated two hours with the chemical substance", "result": 1.6}, {"measurement": "The level of expressed mRNA in the presence of chemical substance/The level of expressed mRNA in the absence of chemical substance", "setting": "yeast gene YGL205W, cells incubated two hours with the chemical substance", "result": 0.9}, {"measurement": "The level of expressed mRNA in the presence of chemical substance/The level of expressed mRNA in the absence of chemical substance", "setting": "yeast gene YGL256W, cells incubated two hours with the chemical substance", "result": 5.3}, {"measurement": "The level of expressed mRNA in the presence of chemical substance/The level of expressed mRNA in the absence of chemical substance", "setting": "yeast gene YGR043C", "result": 3.7}, {"measurement": "The level of expressed mRNA in the presence of chemical substance/The level of expressed mRNA in the absence of chemical substance", "setting": "yeast gene YGR062C, cells incubated two hours with the chemical substance, 25° C., YPD medium", "result": 1.0}, {"measurement": "The level of expressed mRNA in the presence of chemical substance/The level of expressed mRNA in the absence of chemical substance", "setting": "yeast gene YGR087C, cells incubated two hours with the chemical substance", "result": 15.0}, {"measurement": "The level of expressed mRNA in the presence of chemical substance/The level of expressed mRNA in the absence of chemical substance", "setting": "yeast gene YGR174C, cells incubated two hours with the chemical substance", "result": 1.6}, {"measurement": "The level of expressed mRNA in the presence of chemical substance/The level of expressed mRNA in the absence of chemical substance", "setting": "yeast gene YGR192C", "result": 1.0}, {"measurement": "The level of expressed mRNA in the presence of chemical substance/The level of expressed mRNA in the absence of chemical substance", "setting": "yeast gene YGR244C", "result": 1.2}, {"measurement": "The level of expressed mRNA in the presence of chemical substance/The level of expressed mRNA in the absence of chemical substance", "setting": "yeast gene YGR254W", "result": 1.3}, {"measurement": "The level of expressed mRNA in the presence of chemical substance/The level of expressed mRNA in the absence of chemical substance", "setting": "yeast gene YHR179W", "result": 2.3}, {"measurement": "The level of expressed mRNA in the presence of chemical substance/The level of expressed mRNA in the absence of chemical substance", "setting": "yeast gene YIL160C", "result": 2.4}, {"measurement": "The level of expressed mRNA in the presence of chemical substance/The level of expressed mRNA in the absence of chemical substance", "setting": "yeast gene YIR031C, cells incubated two hours with the chemical substance", "result": 1.6}, {"measurement": "The level of expressed mRNA in the presence of chemical substance/The level of expressed mRNA in the absence of chemical substance", "setting": "yeast gene YJL052W", "result": 0.9}, {"measurement": "The level of expressed mRNA in the presence of chemical substance/The level of expressed mRNA in the absence of chemical substance", "setting": "yeast gene YJL121C, cells incubated two hours with the chemical substance", "result": 0.5}, {"measurement": "The level of expressed mRNA in the presence of chemical substance/The level of expressed mRNA in the absence of chemical substance", "setting": "yeast gene YJL166W, cells incubated two hours with the chemical substance", "result": 1.5}, {"measurement": "The level of expressed mRNA in the presence of chemical substance/The level of expressed mRNA in the absence of chemical substance", "setting": "yeast gene YJL216C, cells incubated two hours with the chemical substance", "result": 4.7}, {"measurement": "The level of expressed mRNA in the presence of chemical substance/The level of expressed mRNA in the absence of chemical substance", "setting": "yeast gene YJR009C", "result": 1.7}]}
